Assay results taken from PubChem BioAssay AID1259407 (Chemical Carcinogenesis Research Information System (CCRIS), 2018).
Activity calls are given as the source filed them. No rule for the calls is given here.

Tested on: CCRIS mutagenicity, Ames/micronucleus/aberration tests
Test: CCRIS mutagenicity studies
[1] = Test System: AMES SALMONELLA TYPHIMURIUM, Strain/Indicator: TA98, Metabolic Activation: NONE, Method: PREINCUBATION
[2] = Test System: AMES SALMONELLA TYPHIMURIUM, Strain/Indicator: TA100, Metabolic Activation: NONE, Method: PREINCUBATION

In the case of `Nc1ccc2c(O)cc(S(=O)(=O)O)cc2c1`, the mutagenic call (End Point: IN VITRO CHROMOSOMAL ABERRATIONS, Test System: CHL CELLS, Metabolic Activation: NONE) is reported as “inactive; negative” and the mutagenic call (End Point: IN VITRO CHROMOSOMAL ABERRATIONS, Test System: CHL CELLS, Metabolic Activation: RAT, LIVER, S-9, SODIUM PHENOBARBITAL AND 5,6-BENZOFLAVONE) is reported as “active; positive”.

With `O=CC(O)C(O)C(O)C(O)CO` (stereo not drawn) the mutagenic call (Test System: AMES SALMONELLA TYPHIMURIUM, Strain/Indicator: TA97, Metabolic Activation: NONE, Method: PREINCUBATION) was “inactive; negative”, the mutagenic call (Test System: AMES SALMONELLA TYPHIMURIUM, Strain/Indicator: TA97, Metabolic Activation: S-9, Method: PREINCUBATION) was “inactive; negative” and the mutagenic call (Test System: AMES SALMONELLA TYPHIMURIUM, Strain/Indicator: TA102, Metabolic Activation: NONE, Method: PREINCUBATION) was “inactive; negative”. The mutagenic call (Test System: AMES SALMONELLA TYPHIMURIUM, Strain/Indicator: TA102, Metabolic Activation: S-9, Method: PREINCUBATION) was “inactive; negative”.

In the case of `c1ccc2c(c1)ccc1nc3c(ccc4ccccc43)cc12`, the mutagenic call (Test System: AMES SALMONELLA TYPHIMURIUM, Strain/Indicator: TA100, Metabolic Activation: RAT, LIVER, S-9, PHENOBARBITAL AND 5,6-BENZOFLAVONE, Method: STANDARD PLATE) is reported as “active; positive”.

In the case of `Cc1cc2ncccc2c2ncn(C)c12`, the mutagenic call [1] is reported as “inactive; negative”, the mutagenic call (Test System: AMES SALMONELLA TYPHIMURIUM, Strain/Indicator: TA98, Metabolic Activation: RAT, LIVER, S-9, AROCLOR 1254, Method: PREINCUBATION) is reported as “inactive; negative” and the mutagenic call [2] is reported as “inactive; negative”. For the same compound, the mutagenic call (Test System: AMES SALMONELLA TYPHIMURIUM, Strain/Indicator: TA100, Metabolic Activation: RAT, LIVER, S-9, AROCLOR 1254, Method: PREINCUBATION) was “inactive; negative”.

With `Cc1ccc(Cl)c(N)c1` the mutagenic call (Test System: UDS RODENT HEPATOCYTES, Strain/Indicator: THY INCORP (NON-S-PHASE), Metabolic Activation: NONE, Method: AUTORADIOGRAPHY) was “inactive; negative”.

In the case of `CC(O)CN(CC(C)O)CC(C)O` (stereo not drawn) (tested in a mixture with another compound), the mutagenic call [1] is reported as “inactive; negative”, the mutagenic call (Test System: AMES SALMONELLA TYPHIMURIUM, Strain/Indicator: TA98, Metabolic Activation: RAT LIVER S-9, AROCLOR 1254, 10%, Method: PREINCUBATION) is reported as “inactive; negative” and the mutagenic call [2] is reported as “inactive; negative”. The mutagenic call (Test System: AMES SALMONELLA TYPHIMURIUM, Strain/Indicator: TA100, Metabolic Activation: RAT LIVER S-9, AROCLOR 1254, 10%, Method: PREINCUBATION) was “inactive; negative”, the mutagenic call (Test System: AMES SALMONELLA TYPHIMURIUM, Strain/Indicator: TA1535, Metabolic Activation: NONE, Method: PREINCUBATION) was “inactive; negative” and the mutagenic call (Test System: AMES SALMONELLA TYPHIMURIUM, Strain/Indicator: TA1535, Metabolic Activation: RAT LIVER S-9, AROCLOR 1254, 10%, Method: PREINCUBATION) was “inactive; negative”. The mutagenic call (Test System: AMES SALMONELLA TYPHIMURIUM, Strain/Indicator: TA1537, Metabolic Activation: NONE, Method: PREINCUBATION) was “inactive; negative”, the mutagenic call (Test System: AMES SALMONELLA TYPHIMURIUM, Strain/Indicator: TA1537, Metabolic Activation: RAT LIVER S-9, AROCLOR 1254, 10%, Method: PREINCUBATION) was “inactive; negative” and the mutagenic call (Test System: UDS RAT HEPATOCYTES, Strain/Indicator: THYMIDINE INCORPORATION, Metabolic Activation: NONE, Method: AUTORADIOGRAPHY) was “inactive; negative”.

`O=C1C=Cc2c(ccc3c2ccc2ccccc23)C1=O` was tested, and the mutagenic call (Test System: AMES SALMONELLA TYPHIMURIUM, Strain/Indicator: TA98, Metabolic Activation: NONE, Method: STANDARD PLATE) was “inactive; negative” and the mutagenic call (Test System: AMES SALMONELLA TYPHIMURIUM, Strain/Indicator: TA100, Metabolic Activation: RAT, LIVER, S-9, AROCLOR 1254, Method: STANDARD PLATE) was “inactive; negative”.

`Fc1ccc2cccnc2c1F` was tested, and the mutagenic call (Test System: AMES SALMONELLA TYPHIMURIUM, Strain/Indicator: TA100, Metabolic Activation: RAT LIVER S-9, PHENOBARBITAL AND 5,6-BENZOFLAVONE, Method: PREINCUBATION) was “active; positive”.

`CCCCOc1cc(OC)ccc1C(=O)NOC(C)=O` was tested, and the mutagenic call (Test System: AMES SALMONELLA TYPHIMURIUM, Strain/Indicator: TA100, Metabolic Activation: NONE, Method: STANDARD PLATE) was “active; positive” and the mutagenic call (Test System: AMES SALMONELLA TYPHIMURIUM, Strain/Indicator: TA100, Metabolic Activation: RAT, S-9, AROCLOR, Method: STANDARD PLATE) was “active; positive”.

`CC(=O)OO[N+](=O)[O-]` was tested, and the mutagenic call (Test System: AMES SALMONELLA TYPHIMURIUM, Strain/Indicator: TA100, Metabolic Activation: NONE) was “active; positive” and the mutagenic call (Test System: AMES SALMONELLA TYPHIMURIUM, Strain/Indicator: TA100, Metabolic Activation: RAT, LIVER, S-9, AROCLOR 1254) was “active; positive”.
